Test systems include IGROV1 ovarian; NCI-H23 lung; NCI-H460 lung; OVCAR-5 ovarian; SF-268 CNS; SNB-19 CNS; U251 CNS; UACC-62 melanoma; MALME-3M melanoma; SK-MEL-28 melanoma.
Assay in all cases: growth of human tumour cells (NCI), 48 h

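The compound was tested at five concentrations on cells cultured in 96-well plates, with a 48-hour exposure period. GI50 is the concentration that inhibits growth by half. TGI denotes the concentration required for complete inhibition of growth.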

Turning to `CN(C)c1cc[c]([Sn]([c]2ccc(N(C)C)cc2)([c]2ccc(N(C)C)cc2)[c]2ccc(N(C)C)cc2)cc1`, the GI50 was 5.25 µM with IGROV1 ovarian; 5.88 µM in the experiment on NCI-H23 lung; 12 µM in the experiment on NCI-H460 lung; 16.2 µM in the experiment on OVCAR-5 ovarian; 3.67 µM with SF-268 CNS; 10.7 µM with SNB-19 CNS. In addition, the GI50 in the experiment on U251 CNS was 8.02 µM; in the experiment with UACC-62 melanoma, 3.68 µM. Further, the TGI was 19.6 µM with IGROV1 ovarian; 32.3 µM with NCI-H23 lung; 28.1 µM with NCI-H460 lung; 33.2 µM with OVCAR-5 ovarian; 25.4 µM in the experiment on SF-268 CNS; 23 µM in the experiment on SNB-19 CNS. Besides, the figures for the TGI in the experiment on U251 CNS and with UACC-62 melanoma were 21.2 µM and 17.4 µM, respectively.

Take `CN(CCC#N)c1ccc(/C=C(\C#N)c2ccc(Br)cc2)cc1`: the GI50 in the experiment with IGROV1 ovarian, with MALME-3M melanoma, with NCI-H23 lung, in the experiment on OVCAR-5 ovarian, in the experiment with SF-268 CNS and in the experiment with SK-MEL-28 melanoma was greater than 100 µM each time. Moreover, in the experiment on SNB-19 CNS, the GI50 is greater than 100 µM. In addition, the TGI in the experiment with IGROV1 ovarian, with MALME-3M melanoma, in the experiment with NCI-H23 lung, in the experiment with OVCAR-5 ovarian, in the experiment on SF-268 CNS and in the experiment on SK-MEL-28 melanoma was greater than 100 µM each time. The TGI in the experiment on SNB-19 CNS was greater than 100 µM.

As for `COc1c(CCl)cc(-c2cc(=O)c3ccccc3s2)cc1CCl`, the TGI in the experiment with IGROV1 ovarian, in the experiment on NCI-H23 lung, in the experiment with NCI-H460 lung, in the experiment on OVCAR-5 ovarian, with SF-268 CNS and in the experiment with SK-MEL-28 melanoma was greater than 100 µM in each case. Besides, the TGI with SNB-19 CNS is greater than 88.9 µM; in the experiment with U251 CNS it was greater than 59.8 µM; in the experiment with UACC-62 melanoma, greater than 100 µM.

`COc1cccc2c(=O)c3c(sc12)c(N1CCNCC1)nc1ccccc13`: the GI50 in the experiment with IGROV1 ovarian is 1.41 µM; in the experiment on MALME-3M melanoma, 1.65 µM; in the experiment on NCI-H23 lung, 1.62 µM; with NCI-H460 lung it was 1.72 µM; with OVCAR-5 ovarian, 1.79 µM; in the experiment on SF-268 CNS, 1.75 µM. Moreover, the GI50 was 1.86 µM in the experiment with SK-MEL-28 melanoma, 1.79 µM with SNB-19 CNS and 1.73 µM with UACC-62 melanoma. The TGI in the experiment with IGROV1 ovarian worked out at 2.88 µM; in the experiment with MALME-3M melanoma it was 3.24 µM; in the experiment with NCI-H23 lung it was 3.1 µM; in the experiment with NCI-H460 lung, 3.41 µM; with OVCAR-5 ovarian, 3.24 µM; in the experiment on SF-268 CNS, 3.45 µM. Besides, the results for the TGI in the experiment with SK-MEL-28 melanoma, with SNB-19 CNS and with UACC-62 melanoma were 3.4 µM, 3.39 µM and 3.19 µM, respectively.

Take `C1CCC([PH+](C2CCCCC2)C2CCCCC2[PH+](C2CCCCC2)C2CCCCC2)CC1.O=C(C1[CH-]CCCC1)C1CCCC[N-]1.[Au]` (stereo not given): the values for the GI50 with OVCAR-5 ovarian, with SF-268 CNS and with UACC-62 melanoma were 0.343 µM, 0.343 µM and 0.226 µM, respectively. Further, the values for the TGI in the experiment on OVCAR-5 ovarian, with SF-268 CNS and in the experiment on UACC-62 melanoma were 1.53 µM, 1.91 µM and 0.835 µM, respectively.

Regarding `O=C(/C=C\c1ccc(NCc2ccc(C(=O)O)cc2)cc1)CCl`, the GI50 with IGROV1 ovarian is 16.7 µM; with NCI-H23 lung, 15.5 µM; with NCI-H460 lung, 17 µM; in the experiment on OVCAR-5 ovarian it was 17.8 µM; in the experiment on SF-268 CNS, 10.6 µM; in the experiment on SK-MEL-28 melanoma it was 16.8 µM. Besides, the GI50 is 15.3 µM with SNB-19 CNS and 13.9 µM in the experiment on U251 CNS. In addition, the TGI worked out at 37.2 µM in the experiment with IGROV1 ovarian; 31 µM with NCI-H23 lung; 34.3 µM in the experiment with NCI-H460 lung; 34.5 µM in the experiment with OVCAR-5 ovarian; 24.7 µM in the experiment on SF-268 CNS; 31.4 µM in the experiment on SK-MEL-28 melanoma. The values for the TGI in the experiment with SNB-19 CNS and in the experiment on U251 CNS were 29.1 µM and 27 µM, respectively.

In the case of `CCCCCCCCCCCCCCCCCCOc1ccccc1CC(=O)OCC[N+]1(C)CCCC1`, the GI50 is 1.52 µM in the experiment with IGROV1 ovarian; 2.08 µM with MALME-3M melanoma; 2.15 µM in the experiment on NCI-H460 lung; 2.02 µM in the experiment on OVCAR-5 ovarian; 1.55 µM with SF-268 CNS; 2.72 µM with SK-MEL-28 melanoma. In addition, in the experiment on UACC-62 melanoma, the GI50 is 1.63 µM. The TGI in the experiment on IGROV1 ovarian worked out at 3.06 µM; with MALME-3M melanoma it was 5.22 µM; with NCI-H460 lung, 4.65 µM; in the experiment with OVCAR-5 ovarian, 5.31 µM; in the experiment on SF-268 CNS, 3.34 µM; in the experiment on SK-MEL-28 melanoma, 7.86 µM. The compound further displayed a TGI in the experiment on UACC-62 melanoma of 3.33 µM.

As to `S=C1OC2CCCC[C@H]2O1` (stereo not given in full), the TGI in the experiment on IGROV1 ovarian, with NCI-H23 lung, in the experiment on NCI-H460 lung, in the experiment with OVCAR-5 ovarian, with SF-268 CNS and in the experiment on SK-MEL-28 melanoma was greater than 100 µM each time. Moreover, the TGI with SNB-19 CNS, with U251 CNS and in the experiment with UACC-62 melanoma was greater than 100 µM throughout.

For the compound `CC(C)C[C@H](NC(=O)/C=C/Cn1ccc2ccccc2c1=O)B(O)O`, the GI50 in the experiment with IGROV1 ovarian was 10.8 µM; with MALME-3M melanoma, 3.82 µM; in the experiment with NCI-H23 lung, 5.87 µM; with NCI-H460 lung, 12.7 µM; with OVCAR-5 ovarian, 4.36 µM; in the experiment with SF-268 CNS it was 4.98 µM. For the same compound, the GI50 was 3.85 µM in the experiment with SK-MEL-28 melanoma, 6.49 µM in the experiment on SNB-19 CNS and 3.35 µM in the experiment with UACC-62 melanoma. Moreover, the TGI is greater than 100 µM with IGROV1 ovarian; 23 µM with MALME-3M melanoma; greater than 100 µM in the experiment on NCI-H23 lung; 97.5 µM with NCI-H460 lung; 39.8 µM in the experiment with OVCAR-5 ovarian; 51.5 µM in the experiment with SF-268 CNS. The TGI in the experiment with SK-MEL-28 melanoma is 36 µM; in the experiment on SNB-19 CNS, greater than 100 µM; in the experiment with UACC-62 melanoma, 14.9 µM.

Turning to `CC1=CC(C/C(C)=C/COc2ccc3ccc(=O)oc3c2)OC1=O` (stereo not given), the TGI in the experiment with IGROV1 ovarian, in the experiment on NCI-H23 lung, in the experiment with NCI-H460 lung, in the experiment on OVCAR-5 ovarian, with SF-268 CNS and in the experiment with SK-MEL-28 melanoma was greater than 100 µM each time. The TGI with SNB-19 CNS, in the experiment on U251 CNS and in the experiment with UACC-62 melanoma was greater than 100 µM throughout.

As to `Cn1c2ccccc2c(=O)c2ccc(Cl)cc21`, the TGI with IGROV1 ovarian was greater than 10 µM; in the experiment with MALME-3M melanoma, greater than 10 µM; in the experiment on NCI-H23 lung it was greater than 10 µM; with SF-268 CNS, greater than 10 µM; in the experiment with SK-MEL-28 melanoma, greater than 10 µM; in the experiment on SNB-19 CNS, 4 µM. This compound showed a TGI in the experiment on UACC-62 melanoma greater than 10 µM.

For the compound `Nc1ccc(-c2nc3ccc(Cc4ccc5nc(-c6ccc(N)cc6)[nH]c5c4)cc3[nH]2)cc1`, the GI50 was 16.9 µM with IGROV1 ovarian; 2.04 µM in the experiment on MALME-3M melanoma; 3.83 µM in the experiment on NCI-H23 lung; 14.4 µM in the experiment with NCI-H460 lung; 12 µM in the experiment with OVCAR-5 ovarian; 4.23 µM in the experiment with SF-268 CNS. Also, the GI50 with SK-MEL-28 melanoma was 1.93 µM; in the experiment with SNB-19 CNS, 3.24 µM; in the experiment with UACC-62 melanoma it was 3.59 µM. The TGI is 39.8 µM in the experiment with IGROV1 ovarian; 4.53 µM in the experiment with MALME-3M melanoma; 22.3 µM with NCI-H23 lung; 37.1 µM in the experiment with NCI-H460 lung; 30 µM with OVCAR-5 ovarian; 26.9 µM in the experiment on SF-268 CNS. In addition, the figures for the TGI in the experiment on SK-MEL-28 melanoma, with SNB-19 CNS and with UACC-62 melanoma were 4.27 µM, 18.2 µM and 17.8 µM, respectively.

For the compound `O=C1CC2c3ccccc3CCC2c2ccccc21` (stereo not given), the TGI in the experiment on IGROV1 ovarian is 86.6 µM; in the experiment with NCI-H23 lung, 69 µM; in the experiment on NCI-H460 lung it was 69.2 µM; with OVCAR-5 ovarian it was greater than 100 µM; with SF-268 CNS, greater than 100 µM; with SK-MEL-28 melanoma, greater than 100 µM. The TGI with SNB-19 CNS was greater than 100 µM; in the experiment with U251 CNS it was greater than 100 µM; in the experiment with UACC-62 melanoma, 69.6 µM.

For `N#CC1CC2(C1)OCCS2` (stereo not given), the TGI with IGROV1 ovarian, in the experiment with NCI-H23 lung, in the experiment on NCI-H460 lung, in the experiment with OVCAR-5 ovarian, in the experiment on SF-268 CNS and with SK-MEL-28 melanoma was greater than 100 µM each time. Further, the TGI in the experiment on SNB-19 CNS, in the experiment on U251 CNS and with UACC-62 melanoma was greater than 100 µM in each case.

Consider `CC(C)(C)c1cc(C(O)(C(F)(F)F)C(F)(F)F)c2c(c1)C(C(F)(F)F)(C(F)(F)F)OC(C(C)(C)C)N2` (stereo not given), for which the TGI was found to be 18 µM in the experiment on IGROV1 ovarian; 8.6 µM in the experiment on NCI-H23 lung; 9.01 µM in the experiment with NCI-H460 lung; 23.3 µM in the experiment on OVCAR-5 ovarian; 18.8 µM with SK-MEL-28 melanoma; 19.3 µM in the experiment on SNB-19 CNS. Besides, the TGI in the experiment on U251 CNS worked out at 10.8 µM; in the experiment with UACC-62 melanoma, 14.4 µM.

For `COc1cc2[nH]c(C(=O)c3cc(OC)c(OC)c(OC)c3)c(N)c2cc1C#CC1CC1`, the GI50 was 6.01 µM in the experiment with IGROV1 ovarian; 7.12 µM in the experiment with NCI-H23 lung; 3.55 µM in the experiment on NCI-H460 lung; 11.9 µM in the experiment on OVCAR-5 ovarian; 9.08 µM with SF-268 CNS; 7.52 µM in the experiment on SK-MEL-28 melanoma. The GI50 in the experiment with SNB-19 CNS was 5.85 µM; in the experiment on U251 CNS, 4.74 µM; in the experiment with UACC-62 melanoma it was 20.1 µM. Further, the TGI in the experiment with IGROV1 ovarian, in the experiment with NCI-H23 lung, with NCI-H460 lung, in the experiment with OVCAR-5 ovarian, with SF-268 CNS and in the experiment with SK-MEL-28 melanoma was greater than 100 µM in each case. Also, the TGI with SNB-19 CNS, in the experiment on U251 CNS and with UACC-62 melanoma was greater than 100 µM throughout.

As to `CC(CO)(CO)NCCCCn1ccc2c1C(=O)c1c(c(O)c3ccccc3c1O)C2=O`, the GI50 in the experiment on MALME-3M melanoma is 1.69 µM; in the experiment with NCI-H23 lung it was 15.8 µM; in the experiment with NCI-H460 lung, 13.7 µM; in the experiment on OVCAR-5 ovarian it was 16 µM; in the experiment on SF-268 CNS it was 14.4 µM; with SNB-19 CNS, 18.4 µM. Besides, the TGI was determined as 7.38 µM in the experiment with MALME-3M melanoma; 36.4 µM in the experiment on NCI-H23 lung; 42.9 µM with NCI-H460 lung; 29.5 µM in the experiment on OVCAR-5 ovarian; 40.9 µM in the experiment with SF-268 CNS; 42.2 µM with SNB-19 CNS.

(Values after PubChem BioAssay (NCI).)
